Experimental data taken from US12103900B2, “Environment-friendly process for selective acylation of aminophenol” (LAXMI ORGANIC INDUSTRIES LTD, priority 2020, dated 2024).

Assay: Analysis of solubility of paracetamol batches (Table 2)
Assay type: physicochemical
Conditions: limit: soluble in ethanol (95%) and in acetone, sparingly soluble in water, very slightly soluble in dichloro-methane and ether
Experimental: For the analysis of solubility, the paracetamol obtained using the present invention should be soluble in ethanol (95%) and soluble in acetone, sparingly soluble in water, very slightly soluble in dichloro-methane and ether. For identification purpose, the IR spectra should match the standard IR spectrum. The impurities were determined according to European and Indian pharmacopeia.

Q: With CC(=O)Nc1ccc(O)cc1 [Ex. 9, N-acetyl-para-aminophenol] as the compound, how does the Solubility read?
A: The Solubility was “Complies”.
